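Cultured in 96-well plates, cells were exposed to test compound for 48 hours across five concentrations. GI50 marks 50% less growth. TGI denotes the concentration required for complete inhibition of growth.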
How the values were obtained:
Assay in all cases: inhibition of tumour cell growth, NCI panel, 48 h
HOP-62 NSCLC = test system: HOP-62 NSCLC
UACC-257 melanoma = test system: UACC-257 melanoma
A549 NSCLC = test system: A549 NSCLC
U251 CNS = test system: U251 CNS
MALME-3M melanoma = test system: MALME-3M melanoma
COLO 205 colon = test system: COLO 205 colon
SF-295 CNS = test system: SF-295 CNS
OVCAR-4 ovarian = test system: OVCAR-4 ovarian
OVCAR-5 ovarian = test system: OVCAR-5 ovarian
SK-OV-3 ovarian = test system: SK-OV-3 ovarian

COc1ccc(C2C3=C(COC3=O)N(CCO)c3cc4c(cc32)CCC4)cc1OC (stereo not given)
GI50 (HOP-62 NSCLC): 1.08 µM | TGI (HOP-62 NSCLC): > 50 µM | GI50 (UACC-257 melanoma): > 50 µM | TGI (UACC-257 melanoma): > 50 µM | GI50 (A549 NSCLC): 1.13 µM | TGI (A549 NSCLC): > 50 µM | GI50 (U251 CNS): 1.15 µM | TGI (U251 CNS): > 50 µM | GI50 (MALME-3M melanoma): 0.291 µM | TGI (MALME-3M melanoma): > 50 µM | GI50 (COLO 205 colon): 0.533 µM | TGI (COLO 205 colon): 7.71 µM | GI50 (SF-295 CNS): 0.171 µM | TGI (SF-295 CNS): 1.31 µM | GI50 (OVCAR-4 ovarian): 0.901 µM | TGI (OVCAR-4 ovarian): > 50 µM | GI50 (OVCAR-5 ovarian): 3.59 µM | TGI (OVCAR-5 ovarian): > 50 µM | GI50 (SK-OV-3 ovarian): 0.746 µM | TGI (SK-OV-3 ovarian): > 50 µM

C=C(C)[C@@H]1CC[C@@H]2C(=CC[C@]3(C)C([C@H](C)CC/C=C(/C)C(=O)O)CC[C@@]23C)[C@@]1(C)CCC(=O)O (stereo not given in full)
TGI (HOP-62 NSCLC): > 100 µM | TGI (UACC-257 melanoma): 54.2 µM | TGI (A549 NSCLC): > 100 µM | TGI (U251 CNS): 70 µM | TGI (MALME-3M melanoma): 61 µM | TGI (COLO 205 colon): 39.9 µM | TGI (SF-295 CNS): > 100 µM | TGI (OVCAR-4 ovarian): > 100 µM | TGI (OVCAR-5 ovarian): > 100 µM | TGI (SK-OV-3 ovarian): > 100 µM

CCOC(=O)Nc1ccc2nc(Sc3ccc(Cl)cc3)sc2c1
GI50 (HOP-62 NSCLC): 9.43 µM | TGI (HOP-62 NSCLC): > 100 µM | GI50 (UACC-257 melanoma): 9.87 µM | TGI (UACC-257 melanoma): 45.2 µM | GI50 (A549 NSCLC): 6.3 µM | TGI (A549 NSCLC): > 100 µM | GI50 (U251 CNS): 3.15 µM | TGI (U251 CNS): 44.6 µM | GI50 (MALME-3M melanoma): 5.7 µM | TGI (MALME-3M melanoma): 37.1 µM | GI50 (COLO 205 colon): 1.45 µM | TGI (COLO 205 colon): 19 µM | GI50 (SF-295 CNS): 2.19 µM | TGI (SF-295 CNS): 33.9 µM | GI50 (OVCAR-4 ovarian): 20.7 µM | TGI (OVCAR-4 ovarian): > 100 µM | GI50 (OVCAR-5 ovarian): 21.6 µM | TGI (OVCAR-5 ovarian): > 100 µM | GI50 (SK-OV-3 ovarian): 4.8 µM | TGI (SK-OV-3 ovarian): > 95 µM

O=C(N/N=C\c1cc(Br)cc(Br)c1O)N/N=C/c1cc(Br)cc(Br)c1O
GI50 (HOP-62 NSCLC): 8.99 µM | TGI (HOP-62 NSCLC): 22.8 µM | GI50 (UACC-257 melanoma): 2.48 µM | TGI (UACC-257 melanoma): 8.92 µM | GI50 (A549 NSCLC): 3.74 µM | TGI (A549 NSCLC): 14.6 µM | GI50 (U251 CNS): 2.14 µM | TGI (U251 CNS): 15.7 µM | GI50 (MALME-3M melanoma): 11.5 µM | TGI (MALME-3M melanoma): 31.3 µM | GI50 (COLO 205 colon): 3.92 µM | TGI (COLO 205 colon): 14.6 µM | GI50 (SF-295 CNS): 2.48 µM | TGI (SF-295 CNS): 15.7 µM | GI50 (OVCAR-4 ovarian): 2.5 µM | TGI (OVCAR-4 ovarian): 12.9 µM | GI50 (OVCAR-5 ovarian): 10.6 µM | TGI (OVCAR-5 ovarian): 27.6 µM | GI50 (SK-OV-3 ovarian): 5.21 µM | TGI (SK-OV-3 ovarian): 16.6 µM

CCN(CC)Cc1cc(Nc2c3ccc(Cl)cc3nc3c(C)cccc23)ccc1O
GI50 (HOP-62 NSCLC): 1.65 µM | TGI (HOP-62 NSCLC): 3.26 µM | GI50 (UACC-257 melanoma): 1.99 µM | TGI (UACC-257 melanoma): 3.62 µM | GI50 (A549 NSCLC): 1.64 µM | TGI (A549 NSCLC): 4.64 µM | GI50 (U251 CNS): 1.46 µM | TGI (U251 CNS): 2.84 µM | GI50 (MALME-3M melanoma): 1.65 µM | TGI (MALME-3M melanoma): 3.13 µM | GI50 (COLO 205 colon): 1.23 µM | TGI (COLO 205 colon): 2.6 µM | GI50 (SF-295 CNS): 1.78 µM | TGI (SF-295 CNS): 3.34 µM | GI50 (OVCAR-4 ovarian): 1.53 µM | TGI (OVCAR-4 ovarian): 2.97 µM | GI50 (OVCAR-5 ovarian): 2.1 µM | TGI (OVCAR-5 ovarian): 4.86 µM | GI50 (SK-OV-3 ovarian): 1.78 µM | TGI (SK-OV-3 ovarian): 3.33 µM

Cc1cccc(Cc2cnc(NC(=O)/C=C/c3ccco3)s2)c1
GI50 (HOP-62 NSCLC): 0.0535 µM | TGI (HOP-62 NSCLC): > 100 µM | GI50 (UACC-257 melanoma): > 100 µM | TGI (UACC-257 melanoma): > 100 µM | GI50 (A549 NSCLC): 0.0591 µM | TGI (A549 NSCLC): > 100 µM | GI50 (U251 CNS): 0.0396 µM | TGI (U251 CNS): > 100 µM | GI50 (MALME-3M melanoma): 0.0484 µM | TGI (MALME-3M melanoma): > 100 µM | GI50 (COLO 205 colon): 0.0438 µM | TGI (COLO 205 colon): 1.23 µM | GI50 (SF-295 CNS): 0.0437 µM | TGI (SF-295 CNS): > 100 µM | GI50 (OVCAR-4 ovarian): 1.59 µM | TGI (OVCAR-4 ovarian): > 100 µM | GI50 (OVCAR-5 ovarian): 0.208 µM | TGI (OVCAR-5 ovarian): > 100 µM | GI50 (SK-OV-3 ovarian): 0.0465 µM | TGI (SK-OV-3 ovarian): > 100 µM
